Tests used:
Type in all cases: in vivo
Set-up in all cases: key: compounds were considered to be active when, at a concentration of 500 ppm or less, they had an activity on the harmful organisms of 50% or more
Aphis fabae = experiment: Example R: field bean, root-systemic activity on black bean aphids; details: 500 ppm or less; solution pipetted into bottle; after 3 and 6 days
Description: Germinated field bean seeds (Vicia faba) with radicles were transferred into brown glass bottles filled with tap water. Four milliliters of an aqueous solution of the formulated compound to be examined were pipetted into the brown glass bottle. The field bean was then heavily populated with approximately 100 black bean aphids (Aphis fabae). Plant and animals were then stored in a climatized chamber (16 hours of light/day, 25° C., 40–60% relative atmospheric humidity). After 3 and 6 days of storage, the root-systemic activity of the compound on the aphids was determined (mortality). The following examples were active: 184, 186, 305, 220, 265.

[1] = test system: Diabrotica undecimpunctata; experiment: Example C: corn rootworm eggs with maize corn, mortality; details: 500 ppm or less; 4-5-day-old eggs; after 6 days
Rhipicephalus sanguineus = experiment: Example AF: treated filter paper, tick larvae mortality; details: 500 ppm or less, after 24 hours
Description: The formulated compound was pipetted onto filter paper. After the solvent had evaporated, 20–30 tick larvae (Rhipicephalus sanguineus) were placed onto the filter paper. After 24 hours at about 25° C., the effect of the compound on the ticks was determined (mortality). The following examples were active: 197, 1057.

Heliothis virescens [2] = experiment: Example B: tobacco budworm eggs on filter paper/insect diet, mortality; details: 500 ppm or less; 24-hour-old eggs dipped, diet treated; after 6 days
Aedes aegypti = experiment: Example AG: microtiter plate, yellow fever mosquito larvicidal activity; details: 500 ppm or less, after 3 days
Spodoptera exigua [3] = experiment: Example S: treated L2 larvae and insect diet, sugar beet army worm mortality; details: 500 ppm or less, after 6 days
Description: A Petri dish whose bottom was covered with filter paper and which contains about 5 ml of insect diet is prepared. Five L2 larvae of sugar beet army worm (Spodoptera exigua) were counted into a small beaker. 200 μl of an aqueous solution of the formulated compound to be examined were pipetted into the beaker. The treated larvae were then poured into the Petri dish and a further 200 μl of the aqueous solution were distributed over the insect diet. The Petri dish was closed and then stored at 25° C. in a climatized chamber. After 6 days of storage, the mortality among the larvae was determined. The following examples were active: 1036, 175, 184, 1051, 1054, 1055, 234, 1057, 1059, 1060, 1063, 243, 245, 251, 257, 259, 266, 1065, 1067, 290, 291.

Ctenocephalides felis = experiment: Example M: cat fleas fed with treated cattle blood, mortality; details: 500 ppm or less; adult fleas fed blood-preparation mixture; after 48 hours
Description: The formulated compound was mixed with defibrinated cattle blood. 10 adult cat fleas (Ctenocephalides felis) were fed with this blood-preparation mixture. After 48 hours at about 38° C., the effect of the compound on the fleas was determined (mortality). The compounds of the following examples were active: 70, 1002, 1004, 1005, 1036, 60, 197, 1057.

[4] = test system: Leptinotarsa decemlineata; experiment: Example L: potato leaves and larvae sprayed, Colorado beetle mortality; details: 500 ppm or less, after 4 days
Description: Potato leaves were populated with larvae of the Colorado beetle (Leptinotarsa decemlineata). Leaves and larvae were then sprayed with an aqueous solution of the formulated compound to be examined. After 4 days of storage at about 25° C., the effect of the compound on the larvae was determined (mortality). The compounds of the following examples were active: 60, 70, 1002, 1004, 1005, 1036, 1047, 197.

Spodoptera exigua [5] = experiment: Example Z: cotton leaves with larvae sprayed, sugar beet armyworm mortality; details: 500 ppm or less; cotton leaves populated then sprayed; L2 larvae; after 4 days
Description: Cotton leaves were populated with 5 L2 larvae of the sugar beet armyworm (Spodoptera exigua) and then sprayed with an aqueous solution of the formulated compound to be examined. After 4 days of storage at about 23° C., the mortality among the larvae was determined. The following examples were active: 1036, 70, 60, 1047, 197.

Meloidogyne incognita = experiment: Example H: root gall nematode larvae immobilization (contact activity); details: 500 ppm or less; 2nd stage larvae; 6 days permanent exposure
Description: In a glass vessel, an aqueous solution of the formulated compound to be examined was added to about 3000 freshly hatched active (mobile) larvae (2nd development stage) of the root gall nematode (Meloidogyne incognita) (final volume 20 ml). After 6 days of permanent exposure of the nematode larvae, the percentage of the individual larvae immobilized by the activity of the compound was determined in comparison to the untreated controls (contact activity). The compounds of the following examples were active: 39, 52, 159, 161, 162, 163, 164, 165, 1045, 1046, 1047, 179, 183, 187, 1048, 298, 206, 208, 227, 230, 1061, 237, 238, 245, 250, 255, 256, 260, 268, 269, 274, 275, 288, 290.

Heliothis virescens [6] = experiment: Example AB: cotton leaves with larvae sprayed, tobacco budworm mortality; details: 500 ppm or less; cotton leaves with L2 larvae sprayed; after 4 days
Description: Cotton leaves were placed into a Petri dish, populated with 5 L2 larvae of the American tobacco budworm (Heliothis virescens) and sprayed with an aqueous solution of the formulated compound to be examined. After 4 days of storage at about 25° C., the mortality among the larvae was determined. The following examples were active: 70, 1047, 197.

Spodoptera littoralis = experiment: Example G: treated L2 larvae and insect diet, Egyptian cotton leafworm mortality; details: 500 ppm or less, after 6 days
Description: A Petri dish whose bottom was covered with filter paper and which contained about 5 ml of insect diet is prepared. Five L2 larvae of the Egyptian cotton leafworm (Spodoptera littoralis) were counted into a small beaker. 200 μl of an aqueous solution of the formulated preparation to be examined were pipetted into the beaker. The treated larvae were then poured into the Petri dish, and a further 200 μl of the aqueous solution were distributed over the insect diet. The Petri dish was closed and then stored at about 25° C. in a climatized chamber. After 6 days of storage, the effect of the compound on the larvae was determined (mortality). The compounds of the following examples were active: 29, 70, 60, 159, 1005, 1040, 1042, 1044, 1045, 1046, 1047.

Spodoptera exigua [7] = experiment: Example Y: cotton plants sprayed, cut leaves, sugar beet armyworm mortality; details: 500 ppm or less, leaves cut after drying, L2 larvae, after 4 days
Description: Cotton plants were sprayed with an aqueous solution of the formulated compound to be examined. After drying, leaves were cut off, placed into a Petri dish and populated with 5 L2 larvae of the sugar beet armyworm (Spodoptera exigua). After 4 days of storage at about 23° C., the mortality among the larvae was determined. The following examples were active: 1036, 70, 60, 1047, 197.

CC1CCN(CC#Cc2cccc(-c3ccc([N+](=O)[O-])cc3)c2)CC1 [Example 220]
active: root-systemic activity on the aphids (mortality) (Aphis fabae)

CC1CCN(CC#Cc2cc(C(F)(F)F)cc(Cl)n2)CC1.Cl [Example 1057]
active: effect on the eggs and hatched larvae (mortality) [1] | effect on the ticks (mortality) (Rhipicephalus sanguineus) | effect on the eggs and hatched larvae (mortality) (Heliothis virescens [2]) | larvicidal activity (Aedes aegypti) | mortality among the larvae (Spodoptera exigua [3]) | effect on the fleas (mortality) (Ctenocephalides felis)

CC1CCN(CC#Cc2cc(C(F)(F)F)cc(C(F)(F)F)n2)CC1.Cl [Example 1047]
active: effect on the eggs and hatched larvae (mortality) [1] | effect on the larvae (mortality) [4] | effect on the eggs and hatched larvae (mortality) (Heliothis virescens [2]) | mortality among the larvae (Spodoptera exigua [5]) | percentage of larvae immobilized (contact activity) (Meloidogyne incognita) | mortality among the larvae (Heliothis virescens [6]) | effect on the larvae (mortality) (Spodoptera littoralis) | mortality among the larvae (Spodoptera exigua [7])

From patent US7084158B2, “Substituted propargylamines” (Bayer Cropscience S.A., priority 2001, dated 2006)
